Experimental findings from PubChem BioAssay AID493002 (Sanford-Burnham Center for Chemical Genomics, 2010) are described below.

pIC50: −log10 of the molar value.

This assay deals with S. cerevisiae tim23-1 mutant growth, luminescence. Description: potency against tim23-1 yeast growth – luminescence, uHTS hits, dose response (AID 493002).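 Further: yeast grown roughly 22 hours at 25 °C before the luminescence read.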
As to `Cc1cnc(NC(=O)c2cc3c(s2)CCCC3)s1`, the pIC50 (as a rule, the IC50 on a negative log10 scale, so that one unit is a factor of ten) is 4.84.
Turning to `C#CCOCCOCCOCCNc1nc(N2CCN(C(=O)CCCCCCCCCCNC(=O)[C@H](CCCCN)n3cc(C)nn3)CC2)nc(N2CCN(C(=O)CCCCCCCCCCNC(=O)[C@H](CCCN=C(N)N)n3cc(C[C@@H](C)CC)nn3)CC2)n1`, the negative-log IC50 (pIC50) is 4.98.
On to `O=C(Nc1ccc(F)c([N+](=O)[O-])c1)c1cccs1`, for which the pIC50 was 4.82.
For `O=C(N/N=C/C(Cl)=C\c1ccccc1)c1cccs1`, the pIC50 was 5.31.
On to `COc1ccc(NCc2ccc([N+](=O)[O-])s2)cc1`, for which the negative-log IC50 (pIC50) was 5.16.
Turning to `Cc1cc(C(=O)COC(=O)c2ccc([N+](=O)[O-])o2)c(C)n1CC1CCCO1` (stereo unspecified), the pIC50 was 5.00.
With `COc1cccc(/C=N/NC(=O)c2cc(C34CC5CC(CC(C5)C3)C4)[nH]n2)c1` the figure was 4.96; with `CCOC(=O)c1sc(=NC(=O)c2ccco2)n(C)c1C`, 4.85; with `O=S1(=O)N[C@@H](Cc2ccccc2)COc2cc(Br)ccc21`, 4.74.
For `O=[N+]([O-])c1ccc(N/N=C/c2cccc(O)c2)cc1`, the negative logarithm of the IC50 (pIC50) was 5.16.
As for `O=C(N/N=C/c1ccc([N+](=O)[O-])s1)c1ccncc1`, the figure is 5.31.
`COC(=O)c1ccc(NC(=O)CSc2nc(=O)n3cccc(C)c3n2)cc1`: the pIC50 is 4.64.
`Cc1ccc2oc(C(Cl)(Cl)Cl)cc(=O)c2c1`: the negative-log IC50 (pIC50) is 5.36.
For `Cc1ccc(O)c(C(=O)c2cnn(C(=O)Cc3csc(C)n3)c2)c1`, the negative-log IC50 (pIC50) is 4.91.
With `COc1ccc(N2CCN(c3nc4cc(C)ccc4cc3C=O)CC2)cc1` the figure was 4.60; with `CCc1ccc(C2CC(=O)NC(SCC(=O)OC(C)C)=C2C#N)cc1` (stereo unspecified), 4.74.
On to `COc1ccc(N2CCC(CNC(=S)Nc3ccc(C)cc3C)C2)cc1` (stereo unspecified), for which the negative logarithm of the IC50 (pIC50) was 5.12.
With `Cc1ccc(Nc2nc(-c3cccnc3)nc3ccccc23)cc1`, the negative logarithm of the IC50 (pIC50) was 5.28.
As to `CC(C)(C)c1ccc(Oc2ccc(N)cc2)cc1`, the pIC50 was 5.33.
As to `O=C(N/N=C/c1cccs1)c1cc(-c2cccc3ccccc23)n[nH]1`, the pIC50 is 4.55.
For `Cc1ccc(-c2nnc(N3CCN(c4ccccn4)CC3)c3ccccc23)cc1`, the negative logarithm of the IC50 (pIC50) is 5.12.
As for `O=C(N/N=C/c1ccc(Br)s1)c1cccs1`, the figure is 5.04; as for `CCOC(=O)c1cccc(OC(=O)CCNC(=O)c2ccc(Cl)cc2)c1`, 4.88; as for `CCCOc1cccc(C(=O)N/N=C/c2coc3ccccc3c2=O)c1`, 4.87.
Regarding `Cc1ccc(Nc2nc(Cl)c(C=O)s2)cc1Cl`, the pIC50 is 5.24.
As for `COc1ccc(CCN(/C=C2\Sc3ccccc3C2=O)C(C)=O)cc1OC`, the figure is 4.85; as for `COc1cc(/C=N/NC(=O)c2ccc(N)cc2)ccc1OC(=O)c1cccc(C)c1`, 5.01.
Consider `O=c1cc(C(Cl)(Cl)Cl)oc2c1ccc1ccccc12`, for which the negative-log IC50 (pIC50) is 5.66.
As for `CC(C)n1ncc2c(C(=O)NCC(=O)Nc3ccccc3Br)cc(C3CC3)nc21`, the figure is 4.80; as for `Cc1ccc2c(c1)COc1c3ccc(C(=O)NC(C)C)cc3nn1-2`, 4.62; as for `c1ccc(-c2cc3cc4c(cc3cn2)OCO4)cc1`, 4.77.
As to `O=Cc1ccccc1OCc1ccc2c(c1)OCO2`, the negative logarithm of the IC50 (pIC50) was 5.18.
As for `O=C(Nc1ccc(C(=O)N2CCCc3ccccc32)cc1)c1cccs1`, the negative logarithm of the IC50 (pIC50) is 5.11.
`COc1ccc(S(=O)(=O)CC(=O)c2cc3cccc(C)c3oc2=O)cc1`: the pIC50 is 4.89.
With `O=C1c2ccccc2C(=O)N1c1nc(-c2cccs2)cs1` the figure was 5.44; with `O=C(c1cc(-c2cccc(O)c2)on1)N1CCc2ccccc2C1`, 4.80; with `O=C(Nc1ccccc1)C1C(c2ccccc2)C1(Cl)Cl` (stereo unspecified), 4.83.
As for `O=C(CSc1nnnn1Cc1ccccc1)c1ccc(F)cc1`, the pIC50 was 4.70.
With `CCCN1C(=O)C(=O)c2cc(Cl)ccc21` the figure was 4.72; with `CCN(CC)c1ccc2c(C)c(-c3ccc(N)cc3)c(=O)oc2c1`, 4.86; with `COc1cc(C2CC(c3cccs3)=NN2C(=O)CCl)ccc1OC(F)F` (stereo unspecified), 4.66.
For `Cc1nc2nc(-c3cccs3)[nH]c2cc1Br`, the pIC50 was 5.11.
With `N#Cc1c(NC(=O)C2CC2)sc2c1CCCCC2`, the negative-log IC50 (pIC50) is 4.84.
On to `NC(=O)c1c(NC(=O)c2ccccc2F)sc2c1CCCC2`, for which the pIC50 is 4.42.
Turning to `c1ccc(-n2nc3c(ccc4cnnc43)[nH]2)cc1`, the pIC50 is 4.61.
For `CCOC(=O)c1c(NC(=O)CSc2nnnn2-c2ccc(OC)cc2)sc(C)c1C`, the negative-log IC50 (pIC50) was 5.39.
In the case of `CCN(CC)c1ccc(C(=O)Nc2cccc(F)c2)cc1`, the negative logarithm of the IC50 (pIC50) is 5.28.
As for `O=C(Nc1ccc2oc(Cc3ccc(Cl)cc3)nc2c1)c1cccnc1`, the pIC50 was 4.85.
As for `Cc1ccc2[nH]c3ccccc3c(=O)c2c1`, the pIC50 was 4.87.
`CCn1c(N2CCN(S(=O)(=O)c3ccc(OC)cc3)CC2)nc2ccccc21`: the pIC50 was 5.05.
As for `O=C(/C=C/c1ccco1)Nc1scc(-c2ccccc2)c1C(=O)O`, the figure is 4.87; as for `Cc1ccc(S(=O)(=O)n2ccc(OC(=O)c3cccs3)n2)cc1`, 5.08; as for `N=c1c2c(-c3ccccc3)c(-c3ccccc3)n(Cc3ccco3)c2ncn1Cc1ccccc1`, 4.96.
Regarding `CSC1=N/C(=C\c2ccc(C)cc2)C(=O)S1`, the negative-log IC50 (pIC50) was 4.99.
Consider `O=C(COc1ccccc1)N/N=C/c1ccc([N+](=O)[O-])o1`, for which the pIC50 was 5.18.
Turning to `Nc1c(C(=O)Nc2ccc3c(c2)OCCO3)nnn1Cc1ccccc1Cl`, the negative-log IC50 (pIC50) was 4.91.
With `COc1ccc(-c2cc(-c3ccccc3)n[nH]2)c(O)c1` the figure was 4.74; with `OCCCNc1cc(-c2ccccc2)nc2cc(-c3ccc(F)cc3)nn12`, 4.48.
Turning to `Cc1ccc2nc(NC(=O)Cn3nc(C)c([N+](=O)[O-])c3C)sc2c1`, the pIC50 was 5.21.
With `Cc1ccc(-c2nnc(C)c(N3CCCC3)n2)cc1`, the pIC50 was 4.78.
Consider `CCOC(=O)c1ccc(NC(=O)/C=C/c2cccs2)cc1`, for which the pIC50 was 4.58.
Turning to `Cc1ccc(-c2nc3ccccc3[nH]2)s1`, the pIC50 is 5.21.
Take `CC1(C)CC(=O)C=C(c2cccc(Cl)c2O)C1`: the pIC50 was 5.09.
With `O=C(NC(=S)NC(=O)c1ccccc1F)c1ccccc1F` the figure was 5.21; with `Nc1ccc2nc(SCc3ccccc3F)sc2c1`, 5.14.
With `C(=C\c1ccccc1)/C=N/Nc1nc2ccccc2[nH]1`, the pIC50 was 5.06.
As for `CCOc1nc2ccccc2cc1C=O`, the negative-log IC50 (pIC50) is 5.46.
Regarding `COC(=O)c1cccc(NC(=O)c2ccc(OC)c(Cl)c2)c1`, the pIC50 is 4.69.
With `C=CCn1c(SCc2cc(=O)n3ccsc3n2)nc2cc(Cl)ccc2c1=O` the figure was 5.21; with `O=C(N/N=C/c1cccc(F)c1)c1csc2c1CCCC2`, 4.94.
Turning to `COc1ccc(N2CCN(CCC(=O)c3ccc4ccccc4c3)CC2)cc1`, the negative-log IC50 (pIC50) was 5.05.
As for `O=CN(/C=C1\Sc2ccccc2C1=O)Cc1ccccc1`, the figure is 5.15; as for `COc1cc(NC(=O)c2cccs2)ccc1NC(=O)c1ccccc1Cl`, 5.17.
In the case of `CCCCS/C(N)=N/N=C/c1ccccc1O`, the pIC50 is 4.74.
Turning to `Cc1ccc(Nc2nc(Cl)nc(NC(C)(C)C)n2)cc1`, the negative-log IC50 (pIC50) is 4.80.
Consider `Cc1cccc(C)c1N1C(=O)CN(Cc2ccccc2)C1=S`, for which the pIC50 is 4.55.
